Test results from patent publication US6545032B1, “Synthesis of [3,5,7]-H-imidazo[1,5-a] imidazol-2(3H)-one compounds” (Torrey Pines Institute for Molecular Studies, priority 1999, dated 2003).

What was measured:
[1] = target: T1, mu opiate receptor (Rattus norvegicus, UniProt P33535); experiment: Inhibition of [3H]DAMGO binding to the mu opiate receptor in rat brain homogenates; parameters: Mean: unit not given beside the values; conditions: 0.08 mg of compound per milliliter, 7 nM 3H-labeled DAMGO, rat brain membranes; for % Bound: [3H]DAMGO bound; for Mean: mean bound radioactivity of [3H]DAMGO; for Minus NSB*: mean minus non-specific binding; for % Inhibition: percent inhibition of DAMGO binding
T1 construct: from tissue; host or cells: rat brain membranes/homogenate
How it was run: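 Members of an imidazo-imidazolone compound library were tested for blocking binding of [^3H]DAMGO, a mu opiate receptor-specific ligand, to rat brain membranes. Each 0.65 mL tube held 0.08 mg of compound mixture per milliliter, 0.5 mL membrane suspension (0.1 mg of protein) and 7 nM ^3H-labeled DAMGO (36 Ci/mmol) in 50 mM Tris-HCl buffer (pH 7.4).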

[2] = target: T2, kappa opiate receptor (Cavia porcellus, UniProt P41144); experiment: Inhibition of tritiated U69,593 binding to the kappa opiate receptor in guinea pig brain homogenates; parameters: Mean: unit not given beside the values; conditions: 3 nm tritiated U69,593, guinea pig brain membranes; for % Bound: [3H]U69,593 bound; for % Inhibition: inhibition of [3H]U69,593 binding; for Mean: mean bound radioactivity of [3H]U69,593, 2.5 hours 25° C.; for Minus NSB: mean minus non-specific binding
T2 construct: guinea pig cortices and cerebella were homogenized in 40 mL of Buffer A; from tissue; host or cells: guinea pig cortices and cerebella, crude membrane suspension
How it was run: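 Guinea pig cortex and cerebellum membranes in 50 mM Tris-HCl pH 7.4 incubated with 3 nM [³H]U69,593 for 2.5 h at 25 °C, then filtered and bound radioactivity counted. Unlabelled U50,488 served as competitor for standard curve and nonspecific binding.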

T1 sequence (P33535 whole entry): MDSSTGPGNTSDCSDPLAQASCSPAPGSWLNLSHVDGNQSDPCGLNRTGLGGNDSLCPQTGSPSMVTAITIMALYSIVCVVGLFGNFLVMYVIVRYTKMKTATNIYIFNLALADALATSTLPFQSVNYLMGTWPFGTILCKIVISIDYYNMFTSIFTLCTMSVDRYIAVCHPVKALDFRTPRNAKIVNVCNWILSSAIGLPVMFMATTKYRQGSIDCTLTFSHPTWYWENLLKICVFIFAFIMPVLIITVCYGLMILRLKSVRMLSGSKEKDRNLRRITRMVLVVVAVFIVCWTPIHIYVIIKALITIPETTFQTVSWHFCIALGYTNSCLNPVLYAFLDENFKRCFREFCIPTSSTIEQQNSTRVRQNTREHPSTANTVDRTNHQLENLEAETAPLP
T2 sequence (P41144 whole entry): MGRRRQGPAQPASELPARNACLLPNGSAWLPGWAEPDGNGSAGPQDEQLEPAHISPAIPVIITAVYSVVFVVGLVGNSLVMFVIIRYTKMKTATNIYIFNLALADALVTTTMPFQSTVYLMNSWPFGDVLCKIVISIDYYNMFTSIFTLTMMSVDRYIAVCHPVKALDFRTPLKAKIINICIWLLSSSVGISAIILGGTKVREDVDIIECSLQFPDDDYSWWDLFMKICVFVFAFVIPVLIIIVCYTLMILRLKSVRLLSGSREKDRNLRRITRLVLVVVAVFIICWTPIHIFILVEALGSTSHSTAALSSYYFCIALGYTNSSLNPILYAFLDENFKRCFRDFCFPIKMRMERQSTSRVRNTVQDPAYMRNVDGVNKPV

Cc1nc(C)n2c1NC(=O)C2C(C)C (centres unmarked) [Pool 51]
% Bound [1]: 62%
Mean [1]: 902.75
Minus NSB* [1]: 594.75
% Inhibition [1]: 38%
% Bound [2]: 71.313%
% Inhibition [2]: 28.687%
Mean [2]: 1645.8
Minus NSB [2]: 738.80

Cc1nc(C(C)C)c2n1C(C(C)C)C(=O)N2 (centres unmarked) [Pool 52]
% Bound [1]: 68%
Mean [1]: 959.85
Minus NSB* [1]: 651.85
% Inhibition [1]: 32%
% Bound [2]: 74.744%
% Inhibition [2]: 25.256%
Mean [2]: 1681.35
Minus NSB [2]: 774.35

Cc1nc(CC(C)C)c2n1C(C(C)C)C(=O)N2 (centres unmarked) [Pool 53]
% Bound [1]: 71%
Mean [1]: 988.95
Minus NSB* [1]: 680.95
% Inhibition [1]: 29%
% Bound [2]: 106.356%
% Inhibition [2]: −6.356%
Mean [2]: 2008.85
Minus NSB [2]: 1101.85

CCC(C)c1nc(C)n2c1NC(=O)C2C(C)C (centres unmarked) [Pool 54]
% Bound [1]: 53%
Mean [1]: 815.2
Minus NSB* [1]: 507.20
% Inhibition [1]: 47%
% Bound [2]: 100.410%
% Inhibition [2]: −0.410%
Mean [2]: 1947.25
Minus NSB [2]: 1040.25

CC(C)Cc1nc(C(C)C)c2n1C(C(C)C)C(=O)N2 (centres unmarked) [Pool 125]
% Bound [1]: 48%
Mean [1]: 763.7
Minus NSB* [1]: 455.70
% Inhibition [1]: 52%
% Bound [2]: 62.384%
% Inhibition [2]: 37.616%
Mean [2]: 1553.3
Minus NSB [2]: 646.30

CCC(C)Cc1nc(C(C)C)c2n1C(C(C)C)C(=O)N2 (centres unmarked) [Pool 126]
% Bound [1]: 64%
Mean [1]: 918.7
Minus NSB* [1]: 610.70
% Inhibition [1]: 36%
% Bound [2]: 73.311%
% Inhibition [2]: 26.689%
Mean [2]: 1666.5
Minus NSB [2]: 759.50

CC(C)CCc1nc(C(C)C)c2n1C(C(C)C)C(=O)N2 (centres unmarked) [Pool 127]
% Bound [1]: 63%
Mean [1]: 909.6
Minus NSB* [1]: 601.60
% Inhibition [1]: 37%
% Bound [2]: 66.178%
% Inhibition [2]: 33.822%
Mean [2]: 1592.6
Minus NSB [2]: 685.60

CC(C)c1nc(C(C)(C)C)n2c1NC(=O)C2C(C)C (centres unmarked) [Pool 135]
% Bound [1]: 65%
Mean [1]: 931.85
Minus NSB* [1]: 623.85
% Inhibition [1]: 35%
% Bound [2]: 69.170%
% Inhibition [2]: 30.830%
Mean [2]: 1623.6
Minus NSB [2]: 716.60

CC(C)c1nc(CC(C)(C)C)n2c1NC(=O)C2C(C)C (centres unmarked) [Pool 136]
% Bound [1]: 72%
Mean [1]: 991
Minus NSB* [1]: 683.00
% Inhibition [1]: 28%
% Bound [2]: 80.589%
% Inhibition [2]: 19.411%
Mean [2]: 1741.9
Minus NSB [2]: 834.90

CC(C)c1nc(C2CCCCC2)n2c1NC(=O)C2C(C)C (centres unmarked) [Pool 137]
% Bound [1]: 66%
Mean [1]: 933.35
Minus NSB* [1]: 625.35
% Inhibition [1]: 34%
% Bound [2]: 129.619%
% Inhibition [2]: −29.619%
Mean [2]: 2249.85
Minus NSB [2]: 1342.85

CC(C)c1nc(CC2CCCCC2)n2c1NC(=O)C2C(C)C (centres unmarked) [Pool 138]
% Bound [1]: 60%
Mean [1]: 877.8
Minus NSB* [1]: 569.80
% Inhibition [1]: 40%
% Bound [2]: 70.685%
% Inhibition [2]: 29.315%
Mean [2]: 1639.3
Minus NSB [2]: 732.30

CC(C)c1nc(C(C2CCCCC2)C2CCCCC2)n2c1NC(=O)C2C(C)C (centres unmarked) [Pool 139]
% Bound [1]: 65%
Mean [1]: 928.85
Minus NSB* [1]: 620.85
% Inhibition [1]: 35%
% Bound [2]: 58.779%
% Inhibition [2]: 41.221%
Mean [2]: 1515.95
Minus NSB [2]: 608.95

CC(C)c1nc(CCCC2CCCCC2)n2c1NC(=O)C2C(C)C (centres unmarked) [Pool 140]
% Bound [1]: 32%
Mean [1]: 615.55
Minus NSB* [1]: 307.55
% Inhibition [1]: 68%
% Bound [2]: 49.903%
% Inhibition [2]: 50.097%
Mean [2]: 1424
Minus NSB [2]: 517.00
